Data from ChEMBL document CHEMBL5375954, “Discovery and Evaluation of C6-Substituted Pyrazolopyrimidine-Based Bisphosphonate Inhibitors of the Human Geranylgeranyl Pyrophosphate Synthase and Evaluation of Their Antitumor Efficacy in Multiple Myeloma, Pancreatic Ductal Adenocarcinoma, and Colorectal Cancer” (J Med Chem, 2023).
Calls of active or inactive are those of the source. The calls are words filed in the database; no cut-off is given here.

Legend:
[1] = target: T1, Geranylgeranyl pyrophosphate synthase (Homo sapiens, UniProt O95749); assay: Inhibition of N-terminal His6 tagged human GGPPS expressed in Escherichia coli BL21(DE3) cells in presence of FPP and [14C]IPP by scintillation counting analysis
T1 sequence (O95749 whole entry): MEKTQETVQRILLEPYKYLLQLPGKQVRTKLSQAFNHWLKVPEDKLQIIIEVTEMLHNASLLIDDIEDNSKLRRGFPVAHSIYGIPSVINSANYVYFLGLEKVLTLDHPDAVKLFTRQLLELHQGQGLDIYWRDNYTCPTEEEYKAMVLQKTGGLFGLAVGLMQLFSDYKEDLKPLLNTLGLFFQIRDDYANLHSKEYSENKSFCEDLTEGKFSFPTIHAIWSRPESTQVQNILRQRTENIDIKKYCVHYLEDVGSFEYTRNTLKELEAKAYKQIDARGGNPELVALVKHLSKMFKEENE

Mus musculus = organism: Mus musculus; assay: Cytotoxicity against KPC mouse pancreatic cancer organoid ccmT4 at 1 uM incubated for 72 hrs by CellTiter-Glo luminescence based analysis; format: functional, tissue-based
MIA PaCa-2 [2] = assay: Induction of apoptosis in human MIA PaCa-2 cells assessed as live cells at 1 uM incubated for 72 hrs by APC-Annexin-V/7-AAD staining based flow cytometry (reference value: 97.7%); format: functional
MIA PaCa-2 [3] = assay: Induction of apoptosis in human MIA PaCa-2 cells assessed as late apoptotic cells at 1 uM incubated for 72 hrs by APC-Annexin-V/7-AAD staining based flow cytometry (reference value: 0.29%); format: functional
MIA PaCa-2 [4] = assay: Induction of apoptosis in human MIA PaCa-2 cells assessed as necrotic cells at 1 uM incubated for 72 hrs by APC-Annexin-V/7-AAD staining based flow cytometry (reference value: 0.75%); format: functional
HCT-116 [5] = assay: Induction of apoptosis in human HCT-116 cells assessed as live cells at 1 uM incubated for 72 hrs by APC-Annexin-V/7-AAD staining based flow cytometry (reference value: 95.3%); format: functional
HCT-116 [6] = assay: Induction of apoptosis in human HCT-116 cells at 1 uM incubated for 72 hrs by APC-Annexin-V/7-AAD staining based flow cytometry relative to control; format: functional
[7] = target: T2, Ras-related protein Rap-1A (Homo sapiens) (UniProt P62834); assay: Inhibition of RAP-1A prenylation in human HCT-116 cells incubated for 48 hrs by Western blot analysis; format: cell-based; conditions: dose 10-1000 nM
T2 sequence (whole entry): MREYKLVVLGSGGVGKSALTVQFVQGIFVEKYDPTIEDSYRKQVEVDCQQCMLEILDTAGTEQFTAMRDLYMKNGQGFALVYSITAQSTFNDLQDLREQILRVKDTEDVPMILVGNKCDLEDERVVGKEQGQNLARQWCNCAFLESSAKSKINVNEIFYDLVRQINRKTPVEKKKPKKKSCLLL

KMS-12-PE = assay: Antiproliferative activity against human KMS-12-PE cells harboring wild type KRAS at 0.1 to 10000 nM incubated for 72 hrs by MTS assay; format: functional, cell-based; conditions: dose 0.1-10000 nM
KMS-28PE = assay: Antiproliferative activity against human KMS-28-PE cells harboring KRAS G12A mutant at 0.1 to 10000 nM incubated for 72 hrs by MTS assay; format: functional, cell-based; conditions: dose 0.1-10000 nM
[8] = Metabolic stability in Beagle dog liver microsomes assessed as compound remaining incubated for 45 mins in presence of NADPH by LC-MS/MS analysis; format: ADME, Canis lupus familiaris, Microsome; conditions: 0.75 h
[9] = Metabolic stability in Beagle dog liver microsomes assessed as compound remaining incubated for 45 mins in absence of NADPH by LC-MS/MS analysis; format: ADME, Canis lupus familiaris, Microsome; conditions: 0.75 h
Cytochrome P450 3A4 = Cytochrome P450 3A4 (Homo sapiens, UniProt P08684); assay: Inhibition of CYP3A4 (unknown origin); format: ADME
[10] = Plasma clearance in Sprague-Dawley rat at 3 mg/kg, iv measured for 24 hrs by LC-MS/MS analysis; format: ADME, organism-based
[11] = Volume of distribution in Sprague-Dawley rat at 3 mg/kg, iv measured for 24 hrs by LC-MS/MS analysis; format: ADME, organism-based; conditions: in vivo
[12] = MRT in Sprague-Dawley rat at 3 mg/kg, iv measured for 24 hrs by LC-MS/MS analysis; format: ADME, organism-based; conditions: in vivo
[13] = Half life in Sprague-Dawley rat at 3 mg/kg, iv measured for 24 hrs by LC-MS/MS analysis; format: ADME, organism-based; conditions: in vivo
[14] = Toxicity in NSG mouse xenografted with human MIA PaCa-2 cells assessed as signs of distress at 3 mg/kg, ip administered 3 times a week for 26 days and measured daily; format: organism-based; conditions: in vivo, time 26 day
[15] = Toxicity in NSG mouse xenografted with human MIA PaCa-2 cells assessed as reduction in mobility at 3 mg/kg, ip administered 3 times a week for 26 days and measured daily; format: organism-based; conditions: in vivo, time 26 day
[16] = Toxicity in NSG mouse xenografted with human MIA PaCa-2 cells assessed as inflammation at site of injection at 3 mg/kg, ip administered 3 times a week for 26 days and measured daily; format: organism-based; conditions: in vivo, time 26 day
MIA PaCa-2 [17] = assay: Antitumor activity against human MIA PaCa-2 cells xenografted in NSG mouse assessed as difference in tumor volume at 3 mg/kg, ip administered 3 times a week for 26 days and measured 48 hrs post last dose; format: functional, organism-based; conditions: time 28.0 day
[18] = Hepatotoxicity in male NSG mouse xenografted with human RPMI-8226 cells assessed as serum ALT level at 3 mg/kg, ip administered 3 times a week for 26 days and measured 48 hrs post last dose (reference value: 35 to 40 IU/L); format: toxicity, organism-based; conditions: in vivo, 672 h, time 28 day
[19] = Hepatotoxicity in male NSG mouse xenografted with human RPMI-8226 cells assessed as foci of necrosis at 3 mg/kg, ip administered 3 times a week for 26 days and measured 48 hrs post last dose by H and E staining based assay; format: toxicity, organism-based; conditions: in vivo, 672 h, time 28 day
[20] = Hepatotoxicity in female NSG mouse xenografted with human RPMI-8226 cells assessed as foci of necrosis at 3 mg/kg, ip administered 3 times a week for 26 days and measured 48 hrs post last dose by H and E staining based assay; format: toxicity, organism-based; conditions: in vivo, 672 h, time 28 day
[21] = Hepatotoxicity in male NSG mouse xenografted with human RPMI-8226 cells assessed as inflammatory infiltrates at 3 mg/kg, ip administered 3 times a week for 26 days and measured 48 hrs post last dose by H and E staining based assay; format: toxicity, organism-based; conditions: in vivo, 672 h, time 28 day
[22] = Hepatotoxicity in male NSG mouse xenografted with human RPMI-8226 cells assessed as vasculitis or perivasculitis at 3 mg/kg, ip administered 3 times a week for 26 days and measured 48 hrs post last dose by H and E staining based assay; format: toxicity, organism-based; conditions: in vivo, 672 h, time 28 day
RPMI-8226 = assay: Induction of ER stress in human RPMI-8226 cells at 1 uM; format: functional, cell-based
MIA PaCa-2 [23] = assay: cells; conditions: Homo sapiens, MIA PaCa-2, 72 h
HCT-116 [24] = assay: cells; conditions: Homo sapiens, HCT-116, 72 h

Sequence of Cytochrome P450 3A4 (P08684 whole entry): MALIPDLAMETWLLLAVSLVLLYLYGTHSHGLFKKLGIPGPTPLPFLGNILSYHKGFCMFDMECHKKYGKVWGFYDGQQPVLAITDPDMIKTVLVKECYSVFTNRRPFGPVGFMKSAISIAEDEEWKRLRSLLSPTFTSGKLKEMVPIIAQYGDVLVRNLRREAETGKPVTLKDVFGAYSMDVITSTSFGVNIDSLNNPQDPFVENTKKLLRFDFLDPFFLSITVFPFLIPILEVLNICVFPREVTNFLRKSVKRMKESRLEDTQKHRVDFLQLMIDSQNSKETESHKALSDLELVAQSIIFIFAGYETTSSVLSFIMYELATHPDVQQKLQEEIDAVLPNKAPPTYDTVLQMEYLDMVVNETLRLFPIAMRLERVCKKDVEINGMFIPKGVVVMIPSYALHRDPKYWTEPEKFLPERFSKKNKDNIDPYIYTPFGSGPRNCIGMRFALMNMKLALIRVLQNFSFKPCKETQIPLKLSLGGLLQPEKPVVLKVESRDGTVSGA

IC50 [1]: 12 nM | inhibition [7]: Dose-Dependent Effect | Stability [8]: 87.7% | Stability [9]: 81.7% | IC50 (Cytochrome P450 3A4): > 40000 nM | clearance [10]: 0.2 mL/min/kg | Vd [11]: 0.055 L/kg | MRT [12]: 4.68 h | half-life [13]: 3.84 h | EC50 (MIA PaCa-2 [23]): 790 nM | EC50 (HCT-116 [24]): 580 nM
SMILES: Cn1ncc2c(NC(P(=O)(O)O)P(=O)(O)O)nc(-c3cccc(C(=O)Nc4ccc(C(F)(F)F)cc4)c3)nc21
Activity (Mus musculus): Active | Activity (MIA PaCa-2 [2]): 32.1% | Activity (MIA PaCa-2 [3]): 41% | Activity (MIA PaCa-2 [4]): 13.4% | Activity (HCT-116 [5]): 56.6% | Activity (HCT-116 [6]): ~50% | Activity (KMS-12-PE): Active | Activity (KMS-28PE): Active | Activity [14]: Non-Toxic | Activity [15]: Non-Toxic | Activity [16]: Non-Toxic | Activity (MIA PaCa-2 [17]): Active | Activity [18]: 42 IU/L | Activity [19]: Non-Toxic | Activity [20]: Non-Toxic | Activity [21]: Non-Toxic | Activity [22]: Non-Toxic | Activity (RPMI-8226): Active
